The target in one test is T1, FGFR2 (Homo sapiens, UniProt P21802).
T1 construct: purchased Carna 08-134
The test is described as follows: FGFR2 Biochemical Caliper Assay (KinEASE-TK kit). The following applies: 0.07 nM FGFR2; compound incubated with protein 10 min, reaction 45 min at RT; read-out: FGFR2 Cliper IC50. The procedure:
Compounds of the present invention were tested in a FGFR1, FGFR2, and FGFR3 Biochemical Caliper Assay.
(§1) Enzyme activity was monitored using KinEASE-TK kit (CisBio, Cat.No. 62TK0PEC) according to manufacturer's instructions. […] Final enzyme concentration was 0.2 nM for FGFR1 and FGFR3, 0.07 nM for FGFR2. Compounds were prepared in 10 mM DMSO and serially diluted into 10 concentrations by 3-fold dilution. Prior to the initiation of the reaction by adding TK-substrate/ATP mixture, the compounds were incubated with protein for 10 min at RT. […] Plates were quenched by adding TK-antibody-Cryptate and Sa-XL665 mixture. After 60 min in the stop solution, read the signal on microplate reader (Molecular Devices, i3x), excitation of 320 nm and emission of 615 nm and 665 nm with a […]. IC50 values were calculated using Prism 7 (GraphPad).

Another test has as its target T2, FGFR1 (Homo sapiens, UniProt P11362).
T2 construct: purchased Carna 08-133
The test is described as follows: FGFR1 Biochemical Caliper Assay (KinEASE-TK kit). As to conditions: ratio FGFR1/FGFR2 of the biochemical assay. The procedure:
as §1, with “Compounds of the present invention were tested in a FGFR1, FGFR2, and FGFR3 Biochemical Caliper Assay. Enzyme” for “Enzyme”

The target in the next test is T3, FGFR3 (Homo sapiens, UniProt P22607).
T3 construct: purchased Carna 08-135
T3 sequence (P22607 23-806): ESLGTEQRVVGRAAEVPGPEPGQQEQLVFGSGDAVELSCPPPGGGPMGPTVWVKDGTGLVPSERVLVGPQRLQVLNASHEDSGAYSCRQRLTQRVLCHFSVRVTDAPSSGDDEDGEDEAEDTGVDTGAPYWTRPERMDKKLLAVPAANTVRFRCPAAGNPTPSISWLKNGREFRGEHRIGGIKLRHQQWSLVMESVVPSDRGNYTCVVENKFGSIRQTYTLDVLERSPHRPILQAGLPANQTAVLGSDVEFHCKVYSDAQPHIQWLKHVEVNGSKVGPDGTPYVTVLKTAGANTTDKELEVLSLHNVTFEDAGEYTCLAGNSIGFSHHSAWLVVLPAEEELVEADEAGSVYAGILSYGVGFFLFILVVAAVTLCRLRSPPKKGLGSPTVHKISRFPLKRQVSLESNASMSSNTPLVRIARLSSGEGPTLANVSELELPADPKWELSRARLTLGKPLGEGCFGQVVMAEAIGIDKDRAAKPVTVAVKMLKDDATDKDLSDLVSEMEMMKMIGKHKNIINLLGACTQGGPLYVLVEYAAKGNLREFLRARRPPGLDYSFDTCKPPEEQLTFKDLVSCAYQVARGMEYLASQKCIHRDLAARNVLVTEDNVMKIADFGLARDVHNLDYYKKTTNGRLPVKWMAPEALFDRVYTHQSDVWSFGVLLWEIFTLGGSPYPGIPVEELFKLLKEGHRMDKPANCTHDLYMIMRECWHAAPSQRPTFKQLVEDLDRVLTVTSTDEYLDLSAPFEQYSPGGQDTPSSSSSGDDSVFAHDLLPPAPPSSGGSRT
The test can be described thus: FGFR3 Biochemical Caliper Assay (KinEASE-TK kit). As to conditions: ratio FGFR3/FGFR2 of the biochemical assay. How it is done:
as §1, with “Compounds of the present invention were tested in a FGFR1, FGFR2, and FGFR3 Biochemical Caliper Assay. Enzyme” for “Enzyme”

A further test concerns SNU16 cells. The test can be described thus: SNU16 Cancer Cell Line Proliferation Assay (CellTiter-Glo). The format is cell-based. As to conditions: Homo sapiens, SNU-16, 72 h. The procedure: Compounds of the present invention were also tested in a SNU16 Cancer Cell Line Proliferation Assay.
SNU16 cells were plated in 96-well clear bottom/white plate(Costar, Cat.No. 3610) at 5000 cells/well in 100 μl medium. Test compounds were prepared in a 10 mM DMSO stock solution and serially diluted into 9 concentrations by 3-fold dilution. 0.5 μl of each concentration of compound was added into the cell culture plates and DMSO as a control. The plates were incubated for 72 h at 37° C. and 5% CO2 incubator. 50 μl CellTiter-Glo reagent (Promega, G7572) was added into each well and then the plates were shaken gently for 10 min at room temperature. Luminescence was read on microplate reader (Molecular Devices, i3x), IC50 values were calculated using Prism 7 (GraphPad).
For orientation: In ATP-based viability assays light output follows the ATP content of the culture.

Structures are written as SMILES.

T1 sequence (P21802 22-821): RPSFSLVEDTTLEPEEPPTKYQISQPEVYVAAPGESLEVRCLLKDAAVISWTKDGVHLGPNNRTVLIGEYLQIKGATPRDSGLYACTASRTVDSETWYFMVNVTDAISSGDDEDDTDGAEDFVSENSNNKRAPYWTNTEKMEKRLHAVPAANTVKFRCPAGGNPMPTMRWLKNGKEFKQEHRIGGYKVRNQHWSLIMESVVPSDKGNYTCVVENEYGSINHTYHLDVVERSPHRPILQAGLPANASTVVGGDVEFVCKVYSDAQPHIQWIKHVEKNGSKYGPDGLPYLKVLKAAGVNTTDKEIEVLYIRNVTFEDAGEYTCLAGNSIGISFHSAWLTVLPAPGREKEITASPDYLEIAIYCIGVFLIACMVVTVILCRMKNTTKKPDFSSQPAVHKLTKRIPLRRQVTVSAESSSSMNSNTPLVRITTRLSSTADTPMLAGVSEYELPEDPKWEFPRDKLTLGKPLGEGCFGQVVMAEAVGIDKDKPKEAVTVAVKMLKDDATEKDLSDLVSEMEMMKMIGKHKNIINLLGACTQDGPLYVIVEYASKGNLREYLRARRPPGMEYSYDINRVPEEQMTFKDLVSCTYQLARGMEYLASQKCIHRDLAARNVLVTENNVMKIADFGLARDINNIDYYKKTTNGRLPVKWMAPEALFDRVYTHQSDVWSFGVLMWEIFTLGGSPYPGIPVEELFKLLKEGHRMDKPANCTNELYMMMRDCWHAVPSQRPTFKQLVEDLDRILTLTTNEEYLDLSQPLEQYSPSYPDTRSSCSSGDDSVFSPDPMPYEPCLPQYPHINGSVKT
T2 sequence (P11362 22-822): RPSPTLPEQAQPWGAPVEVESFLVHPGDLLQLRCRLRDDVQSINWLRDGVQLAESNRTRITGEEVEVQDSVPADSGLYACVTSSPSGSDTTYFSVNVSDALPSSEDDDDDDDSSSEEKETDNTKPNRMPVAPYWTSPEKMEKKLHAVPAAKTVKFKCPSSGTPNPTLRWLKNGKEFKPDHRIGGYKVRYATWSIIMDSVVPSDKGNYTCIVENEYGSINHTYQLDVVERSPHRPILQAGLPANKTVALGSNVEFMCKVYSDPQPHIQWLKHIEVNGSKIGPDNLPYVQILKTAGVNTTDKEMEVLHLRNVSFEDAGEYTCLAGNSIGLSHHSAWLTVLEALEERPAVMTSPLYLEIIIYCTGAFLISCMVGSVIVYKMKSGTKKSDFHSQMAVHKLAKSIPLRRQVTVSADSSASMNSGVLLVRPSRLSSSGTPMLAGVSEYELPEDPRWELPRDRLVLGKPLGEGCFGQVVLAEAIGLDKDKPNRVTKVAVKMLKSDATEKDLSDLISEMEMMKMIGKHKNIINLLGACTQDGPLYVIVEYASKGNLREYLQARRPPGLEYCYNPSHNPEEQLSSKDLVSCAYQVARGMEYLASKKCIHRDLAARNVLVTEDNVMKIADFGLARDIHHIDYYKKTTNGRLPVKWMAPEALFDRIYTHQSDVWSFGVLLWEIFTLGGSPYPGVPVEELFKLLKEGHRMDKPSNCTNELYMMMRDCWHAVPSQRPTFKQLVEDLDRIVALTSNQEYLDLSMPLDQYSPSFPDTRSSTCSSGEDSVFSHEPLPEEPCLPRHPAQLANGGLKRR

One may read the IC50 as the concentration that inhibits the measured activity by half. For `C=CC(=O)Nc1ccc(-c2nn3ncnc(N)c3c2-c2ccc(C(=O)NCC(C)(C)OC)c(OC)c2)cc1` [Compound 56, 4-(6-(4-acrylamidophenyl)-4-aminopyrazolo[5,1-f] [1,2,4]triazin-5-yl)-2-methoxy-N-(2-methoxy-2-methylpropyl)benzamide], the IC50 on FGFR2 was 5 to 10 nM; in the test on SNU16 cells, ≤ 10 nM. Further, the “Selectivity FGFR1/FGFR2” value at FGFR1 is reported as “A+ (Selectivity of FGFR1/FGFR2 greater or equal to 500)”. Moreover, on FGFR3, the “Selectivity FGFR3/FGFR2” value is on record as “A (Selectivity of FGFR3/FGFR2 less than 150 but greater than or equal to 100)”.
Consider `C=CC(=O)Nc1ccc(-c2c(-c3ccc(C(=O)NC4CCC4)c(OC)c3)c3c(N)ncc(C#N)c3n2CCOC)cc1` [Compound 59, 4-(2-(4-acrylamidophenyl)-4-amino-7-cyano-1-(2-methoxyethyl)-1H-pyrrolo[3,2-c]pyridin-3-yl)-N-cyclobutyl-2-methoxybenzamide], for which the results for the IC50 at FGFR2 and in the test on SNU16 cells were < 5 nM and ≤ 10 nM, respectively. Also, the “Selectivity FGFR1/FGFR2” value at FGFR1 is listed as “A (Selectivity of FGFR1/FGFR2 less than 500 but greater than or equal to 300)”. The “Selectivity FGFR3/FGFR2” value on FGFR3 was “A (Selectivity of FGFR3/FGFR2 less than 150 but greater than or equal to 100)”.
As for `C=CC(=O)Nc1ccc(-c2nn3ncnc(N)c3c2-c2ccc(C(=O)NCC)c(OC)c2)cc1` [Compound 60, 4-(6-(4-acrylamidophenyl)-4-aminopyrazolo[5,1-f] [1,2,4]triazin-5-yl)-N-ethyl-2-methoxybenzamide], the results for the IC50 on FGFR2 and with SNU16 cells were 5 to 10 nM and ≤ 10 nM, respectively. Also, at FGFR1, the “Selectivity FGFR1/FGFR2” value is given as “A+ (Selectivity of FGFR1/FGFR2 greater or equal to 500)”. Further, the “Selectivity FGFR3/FGFR2” value at FGFR3 was “A (Selectivity of FGFR3/FGFR2 less than 150 but greater than or equal to 100)”.
Turning to `C=CC(=O)Nc1ccc(-c2c(-c3ccc(C(=O)NC4CCC4)cc3)c3c(N)ncc(C#N)c3n2C)cc1` [Compound 65, 4-(2-(4-acrylamidophenyl)-4-amino-7-cyano-1-methyl-1H-pyrrolo[3,2-c]pyridin-3-yl)-N-cyclobutylbenzamide], the IC50 on FGFR2 is < 5 nM; in the test on SNU16 cells it was ≤ 10 nM. Further, the “Selectivity FGFR1/FGFR2” value at FGFR1 was “A (Selectivity of FGFR1/FGFR2 less than 500 but greater than or equal to 300)”. Besides, the “Selectivity FGFR3/FGFR2” value on FGFR3 is “A+ (Selectivity of FGFR3/FGFR2 greater or equal to 150)”.
Taken in the same sequence, the figures for `C=CC(=O)Nc1ccc(-c2c(-c3ccc(Oc4nccc(C)n4)cc3)c3c(N)ncc(C#N)c3n2C)cc1` [Compound 69, N-(4-(4-amino-7-cyano-1-methyl-3-(4-((4-methylpyrimidin-2-yl)oxy)phenyl)-1H-pyrrolo[3,2-c]pyridin-2-yl)phenyl)acrylamide] were < 5 nM, ≤ 10 nM, “A (Selectivity of FGFR1/FGFR2 less than 500 but greater than or equal to 300)” and “B (Selectivity of FGFR3/FGFR2 less than 100 but greater than or equal to 25)”.
Regarding `C=CC(=O)Nc1ccc(-c2nn3ncnc(N)c3c2-c2ccc(C(=O)NC3CCC3)c(C)c2)cc1` [Compound 74, 4-(6-(4-acrylamidophenyl)-4-aminopyrazolo[5,1-f][1,2,4]triazin-5-yl)-N-cyclobutyl-2-methylbenzamide], the values for the IC50 at FGFR2 and in the test with SNU16 cells were > 10 nM and ≤ 10 nM, respectively. The “Selectivity FGFR1/FGFR2” value on FGFR1 is recorded as “C (Selectivity of FGFR1/FGFR2 less than 200 but greater than or equal to 100)”. Further, the “Selectivity FGFR3/FGFR2” value at FGFR3 is recorded as “A+ (Selectivity of FGFR3/FGFR2 greater or equal to 150)”.
In the same order, the values of `C=CC(=O)Nc1ccc(-c2nn3ncnc(N)c3c2-c2ccc(C(=O)NCC(C)C)c(OC)c2)cc1` [Compound 81, 4-(6-(4-acrylamidophenyl)-4-aminopyrazolo[5,1-f] [1,2,4]triazin-5-yl)-N-isobutyl-2-methoxybenzamide] are < 5 nM, ≤ 10 nM, “A+ (Selectivity of FGFR1/FGFR2 greater or equal to 500)” and “A+ (Selectivity of FGFR3/FGFR2 greater or equal to 150)”.
In the same order, the values of `C=CC(=O)Nc1ccc(-c2nn3ncnc(N)c3c2-c2ccc(C(=O)NCC(F)(F)F)c(OC)c2)c(OC)c1` [Compound 85, 4-(6-(4-acrylamido-2-methoxyphenyl)-4-aminopyrazolo[5,1-f] [1,2,4]triazin-5-yl)-2-methoxy-N-(2,2,2-trifluoroethyl)benzamide] are < 5 nM, ≤ 10 nM, “A+ (Selectivity of FGFR1/FGFR2 greater or equal to 500)” and “A+ (Selectivity of FGFR3/FGFR2 greater or equal to 150)”.
In the same order, the values of `C=CC(=O)Nc1ccc(-c2nn3ncnc(N)c3c2-c2ccc(C(=O)NCC(F)(F)F)c(OC)c2)c(F)c1` [Compound 86, 4-(6-(4-acrylamido-2-fluorophenyl)-4-aminopyrazolo[5,1-f] [1,2,4]triazin-5-yl)-2-methoxy-N-(2,2,2-trifluoroethyl)benzamide] are < 5 nM, ≤ 10 nM, “A+ (Selectivity of FGFR1/FGFR2 greater or equal to 500)” and “B (Selectivity of FGFR3/FGFR2 less than 100 but greater than or equal to 25)”.
`C=CC(=O)Nc1ccc(-c2nn3ncnc(N)c3c2-c2ccc(C(=O)NC3CC3)c(OC)c2)cc1` [Compound 89, 4-(6-(4-acrylamidophenyl)-4-aminopyrazolo[5,1-f] [1,2,4]triazin-5-yl)-N-cyclopropyl-2-methoxybenzamide]: the IC50 on FGFR2 was < 5 nM; with SNU16 cells, ≤ 10 nM. Further, at FGFR1, the “Selectivity FGFR1/FGFR2” value is “A+ (Selectivity of FGFR1/FGFR2 greater or equal to 500)”. Besides, the “Selectivity FGFR3/FGFR2” value at FGFR3 is “A+ (Selectivity of FGFR3/FGFR2 greater or equal to 150)”.
In the same order, the values of `C=CC(=O)Nc1ccc(-c2nn3ncnc(N)c3c2-c2ccc(C(=O)NCC(F)(F)F)c(OC)c2)cn1` [Compound 90, 4-(6-(6-acrylamidopyridin-3-yl)-4-aminopyrazolo[5,1-f] [1,2,4]triazin-5-yl)-2-methoxy-N-(2,2,2-trifluoroethyl)benzamide] are < 5 nM, 10 to 50 nM, “A (Selectivity of FGFR1/FGFR2 less than 500 but greater than or equal to 300)” and “B (Selectivity of FGFR3/FGFR2 less than 100 but greater than or equal to 25)”.
Consider `C=C(F)C(=O)Nc1ccc(-c2nn3ncnc(N)c3c2-c2ccc(C(=O)NC3CCCC3)c(OC)c2)cc1` [Compound 93, 4-(4-amino-6-(4-(2-fluoroacrylamido)phe-nyl)pyrazolo[5,1-f] [1,2,4]triazin-5-yl)-N-cyclopentyl-2-methoxybenzamide], for which the IC50 at FGFR2 was > 10 nM; with SNU16 cells, ≤ 10 nM. The “Selectivity FGFR1/FGFR2” value on FGFR1 is listed as “A+ (Selectivity of FGFR1/FGFR2 greater or equal to 500)”. Moreover, the “Selectivity FGFR3/FGFR2” value at FGFR3 is reported as “A+ (Selectivity of FGFR3/FGFR2 greater or equal to 150)”.
On to `C=C(F)C(=O)Nc1ccc(-c2nn3ncnc(N)c3c2-c2ccc(C(=O)NC3CCC3)c(OC)c2)cc1` [Compound 95, 4-(4-amino-6-(4-(2-fluoroacrylamido)phe-nyl)pyrazolo[5,1-f][1,2,4]triazin-5-yl)-N-cyclobutyl-2-methoxybenzamide], for which the IC50 was > 10 nM at FGFR2 and ≤ 10 nM with SNU16 cells. Also, the “Selectivity FGFR1/FGFR2” value on FGFR1 is recorded as “A+ (Selectivity of FGFR1/FGFR2 greater or equal to 500)”. For the same compound, on FGFR3, the “Selectivity FGFR3/FGFR2” value is listed as “A+ (Selectivity of FGFR3/FGFR2 greater or equal to 150)”.
For the compound `C=C(F)C(=O)Nc1ccc(-c2c(-c3ccc(C(=O)NC4CCC4)cc3)c3c(N)ncc(C#N)c3n2C)cc1` [Compound 97, 4-(4-amino-7-cyano-2-(4-(2-fluoroacrylamido)phe-nyl)-1-methyl-1H-pyrrolo[3,2-c]pyridin-3-yl)-N-cyclobutylbenzamide], the IC50 was 5 to 10 nM at FGFR2 and ≤ 10 nM with SNU16 cells. The “Selectivity FGFR1/FGFR2” value on FGFR1 is “A+ (Selectivity of FGFR1/FGFR2 greater or equal to 500)”. For the same compound, the “Selectivity FGFR3/FGFR2” value at FGFR3 was “A+ (Selectivity of FGFR3/FGFR2 greater or equal to 150)”.

(Values after patent US20240383905A1, “FGFR INHIBITORS AND METHODS OF USE THEREOF” (3H PHARMACEUTICALS CO., LTD., priority 2021, published 2024).)
